Measured values taken from article PMC9927415, “Tyrosine Kinase Inhibitors Display Potent Activity against Cryptosporidium parvum” (Microbiology Spectrum, 2022).

Columns and labels:
Cryptosporidium parvum = test: In vitro C. parvum growth inhibition assay (Nluc reporter strain in HCT-8 cells); format: cell-based; settings: 48 h; for EC50: mean of two independent experiments, dose response 10 nM to 10 μM, read-out: Cp EC50; for inhibition at 10 µM: primary screen, 10 μM compound, three technical replicates, read-out: Mean percent inhibition of C. parvum growth
Experimental: Host intestinal epithelial adenocarcinoma (HCT-8) cells were seeded into 96-well plates and grown to 70% confluence in RPMI medium supplemented with L-glutamine, 10% fetal bovine serum (FBS), 0.1 U/mL penicillin, 0.1 μg/mL streptomycin, 0.25 μg/mL amphotericin B and 1 mM sodium pyruvate. The host cell medium was aspirated and replaced with Cryptosporidium infection media (RPMI containing 2% FBS, 0.1 U/mL penicillin, 0.1 μg/mL streptomycin and 0.25 μg/mL amphotericin B) media prior to infection. The HCT-8 cells were infected with bleached and washed Nluc expressing C. parvum oocysts (2,000 oocysts per well) to which 10 μM compounds were added and plates were incubated for 48 h at 37°C, 5% CO2 and luminescence was measured using the protocol described previously ([14], [58]). […] Negative (no drug) and positive control (10 μM nitazoxanide) wells (three replicates each) were also set-up in the same plate. After the incubation, medium was removed and 100 μL of NanoGlo lysis buffer (Promega) was added to the wells followed by incubation for 15 min at 37°C, 5% CO2. The lysate was suspended by pipetting and 100 μL of NanoGlo lysis buffer containing 1:50 of NanoGlo substrate (Promega) was added to each well. […] For the dose response assay, compounds were tested in triplicate wells in two independent experiments and percent luminescence of no drug was calculated.
EC50 values were calculated using a nonlinear regression (curve fit of log-dose versus response) in GraphPad Prism version 8.

PAK2 = molecular target: T1, PAK2 (Homo sapiens, UniProt Q13177); test: KINOMEscan competitive binding; settings: n=1, read-out: Percent inhibition, PAK2
T1 construct: purchased DiscoverX (KINOMEscan)

PCTK1 = molecular target: T2, PCTK1 (Homo sapiens, UniProt Q00536); test: KINOMEscan competitive binding; settings: n=1, read-out: Percent inhibition, PCTK1
T2 construct: purchased DiscoverX (KINOMEscan)

PIM2 = molecular target: T3, PIM2 (Homo sapiens, UniProt Q9P1W9); test: KINOMEscan competitive binding; settings: n=1, read-out: Percent inhibition, PIM2
T3 construct: purchased DiscoverX (KINOMEscan)

RPS6KA5(Kin.Dom.1) = molecular target: T4, RPS6KA5(Kin.Dom.1) (Homo sapiens, UniProt O75582); test: KINOMEscan competitive binding; settings: n=1, read-out: Percent inhibition, RPS6KA5(Kin.Dom.1)
T4 construct: RPS6KA5(Kin.Dom.1); purchased DiscoverX (KINOMEscan)

SRC = molecular target: T5, SRC (Homo sapiens, UniProt P12931); test: KINOMEscan competitive binding; settings: n=1, read-out: Percent inhibition, SRC
T5 construct: purchased DiscoverX (KINOMEscan)

TNIK = molecular target: T6, TNIK (Homo sapiens, UniProt Q9UKE5); test: KINOMEscan competitive binding; settings: n=1, read-out: Percent inhibition, TNIK
T6 construct: purchased DiscoverX (KINOMEscan)

TNK1 = molecular target: T7, TNK1 (Homo sapiens, UniProt Q13470); test: KINOMEscan competitive binding; settings: n=1, read-out: Percent inhibition, TNK1
T7 construct: purchased DiscoverX (KINOMEscan)
T7 sequence (Q13470 1-666): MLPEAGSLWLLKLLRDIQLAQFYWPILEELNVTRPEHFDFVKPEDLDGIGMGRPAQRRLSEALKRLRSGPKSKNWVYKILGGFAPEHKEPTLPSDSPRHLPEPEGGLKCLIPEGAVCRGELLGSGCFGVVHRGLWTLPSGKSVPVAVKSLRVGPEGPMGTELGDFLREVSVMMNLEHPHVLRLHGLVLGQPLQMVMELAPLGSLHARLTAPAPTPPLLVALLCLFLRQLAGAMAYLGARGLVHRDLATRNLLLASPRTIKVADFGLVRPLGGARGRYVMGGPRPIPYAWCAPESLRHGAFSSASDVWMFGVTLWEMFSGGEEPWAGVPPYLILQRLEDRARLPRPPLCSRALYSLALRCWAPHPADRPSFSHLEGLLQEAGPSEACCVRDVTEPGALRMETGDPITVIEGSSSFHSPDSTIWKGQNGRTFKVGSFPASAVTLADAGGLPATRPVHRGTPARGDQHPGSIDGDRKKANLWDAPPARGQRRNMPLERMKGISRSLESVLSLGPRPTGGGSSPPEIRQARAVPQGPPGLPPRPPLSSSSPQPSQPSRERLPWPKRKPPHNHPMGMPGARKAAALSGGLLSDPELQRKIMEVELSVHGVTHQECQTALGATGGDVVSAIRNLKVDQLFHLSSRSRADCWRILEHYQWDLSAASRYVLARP

TXK = molecular target: T8, TXK (Homo sapiens, UniProt P42681); test: KINOMEscan competitive binding; settings: n=1, read-out: Percent inhibition, TXK
T8 construct: purchased DiscoverX (KINOMEscan)
T8 sequence (P42681 1-527): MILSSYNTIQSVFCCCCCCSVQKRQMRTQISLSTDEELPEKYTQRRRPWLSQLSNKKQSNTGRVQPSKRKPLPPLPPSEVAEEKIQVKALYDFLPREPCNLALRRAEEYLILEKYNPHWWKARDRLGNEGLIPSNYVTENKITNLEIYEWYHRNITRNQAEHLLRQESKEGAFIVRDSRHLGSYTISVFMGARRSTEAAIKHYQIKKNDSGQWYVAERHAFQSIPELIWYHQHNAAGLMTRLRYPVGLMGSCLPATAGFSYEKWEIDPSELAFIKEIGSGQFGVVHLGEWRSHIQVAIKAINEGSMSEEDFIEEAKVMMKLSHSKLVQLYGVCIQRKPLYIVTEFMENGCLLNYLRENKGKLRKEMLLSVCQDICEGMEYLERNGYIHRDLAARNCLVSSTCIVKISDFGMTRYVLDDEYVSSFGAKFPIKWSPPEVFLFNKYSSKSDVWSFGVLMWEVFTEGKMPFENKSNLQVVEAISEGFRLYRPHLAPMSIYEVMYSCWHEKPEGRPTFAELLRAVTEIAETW

YANK3 = molecular target: T9, YANK3 (Homo sapiens, UniProt Q86UX6); test: KINOMEscan competitive binding; settings: n=1, read-out: Percent inhibition, YANK3
T9 construct: purchased DiscoverX (KINOMEscan)
T9 sequence (Q86UX6 whole entry): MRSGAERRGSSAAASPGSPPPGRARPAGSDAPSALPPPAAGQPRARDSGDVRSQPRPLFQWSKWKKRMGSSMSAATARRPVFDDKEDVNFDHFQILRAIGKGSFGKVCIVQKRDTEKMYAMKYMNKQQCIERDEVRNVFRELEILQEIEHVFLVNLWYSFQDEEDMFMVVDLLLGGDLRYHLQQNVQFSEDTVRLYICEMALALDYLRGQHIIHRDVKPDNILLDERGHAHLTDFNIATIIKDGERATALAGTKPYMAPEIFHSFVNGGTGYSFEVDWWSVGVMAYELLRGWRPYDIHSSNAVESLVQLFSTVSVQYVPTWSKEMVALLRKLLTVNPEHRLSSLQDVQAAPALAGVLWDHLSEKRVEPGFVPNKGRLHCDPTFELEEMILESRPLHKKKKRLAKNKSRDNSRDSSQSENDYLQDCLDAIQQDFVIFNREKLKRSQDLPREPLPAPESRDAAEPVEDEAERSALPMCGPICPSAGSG

T6 sequence (Q9UKE5 whole entry): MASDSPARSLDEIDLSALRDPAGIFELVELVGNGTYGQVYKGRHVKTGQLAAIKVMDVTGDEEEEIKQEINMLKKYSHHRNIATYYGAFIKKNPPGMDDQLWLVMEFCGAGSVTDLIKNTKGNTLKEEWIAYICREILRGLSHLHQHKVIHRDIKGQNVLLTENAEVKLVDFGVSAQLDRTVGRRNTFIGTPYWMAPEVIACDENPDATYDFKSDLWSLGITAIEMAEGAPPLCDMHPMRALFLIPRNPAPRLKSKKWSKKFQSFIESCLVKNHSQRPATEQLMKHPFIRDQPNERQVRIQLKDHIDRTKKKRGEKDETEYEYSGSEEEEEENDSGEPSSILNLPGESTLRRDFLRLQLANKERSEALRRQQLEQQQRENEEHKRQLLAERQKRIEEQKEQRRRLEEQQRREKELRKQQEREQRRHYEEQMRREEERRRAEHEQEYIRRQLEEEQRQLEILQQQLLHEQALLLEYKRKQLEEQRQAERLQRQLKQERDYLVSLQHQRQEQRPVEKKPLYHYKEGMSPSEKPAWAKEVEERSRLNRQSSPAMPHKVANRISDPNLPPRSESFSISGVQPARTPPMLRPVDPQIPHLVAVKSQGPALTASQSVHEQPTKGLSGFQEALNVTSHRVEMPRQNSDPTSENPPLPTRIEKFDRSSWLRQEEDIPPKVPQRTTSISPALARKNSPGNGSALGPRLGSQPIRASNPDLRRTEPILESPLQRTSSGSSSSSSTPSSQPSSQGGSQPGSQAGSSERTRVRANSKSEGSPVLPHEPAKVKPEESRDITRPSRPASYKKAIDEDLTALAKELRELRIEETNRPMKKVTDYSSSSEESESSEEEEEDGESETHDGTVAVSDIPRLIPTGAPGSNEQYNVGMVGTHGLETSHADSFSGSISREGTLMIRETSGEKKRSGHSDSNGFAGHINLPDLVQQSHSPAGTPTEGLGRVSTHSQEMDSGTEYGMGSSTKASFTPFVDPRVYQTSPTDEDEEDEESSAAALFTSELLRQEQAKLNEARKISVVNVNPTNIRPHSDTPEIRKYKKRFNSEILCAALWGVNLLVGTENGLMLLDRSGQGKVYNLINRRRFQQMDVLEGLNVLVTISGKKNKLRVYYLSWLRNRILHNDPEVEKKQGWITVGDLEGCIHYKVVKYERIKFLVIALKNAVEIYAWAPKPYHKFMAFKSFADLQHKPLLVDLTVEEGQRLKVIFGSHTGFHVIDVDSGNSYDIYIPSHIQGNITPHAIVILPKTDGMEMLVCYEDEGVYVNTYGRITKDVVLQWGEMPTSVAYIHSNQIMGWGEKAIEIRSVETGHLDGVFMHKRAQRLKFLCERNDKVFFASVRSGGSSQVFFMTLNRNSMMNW
T4 sequence (O75582 1-387 limits assumed): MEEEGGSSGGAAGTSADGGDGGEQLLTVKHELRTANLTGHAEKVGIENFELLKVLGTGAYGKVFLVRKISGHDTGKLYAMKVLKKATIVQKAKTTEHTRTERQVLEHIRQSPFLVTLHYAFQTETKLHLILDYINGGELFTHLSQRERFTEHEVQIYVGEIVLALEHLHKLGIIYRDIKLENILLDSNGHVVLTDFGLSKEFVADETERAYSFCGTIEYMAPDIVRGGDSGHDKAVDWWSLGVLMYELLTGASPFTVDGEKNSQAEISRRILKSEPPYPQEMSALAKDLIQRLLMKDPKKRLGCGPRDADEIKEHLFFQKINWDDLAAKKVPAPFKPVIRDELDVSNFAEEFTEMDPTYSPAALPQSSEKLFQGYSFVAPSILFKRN
T3 sequence (Q9P1W9 whole entry): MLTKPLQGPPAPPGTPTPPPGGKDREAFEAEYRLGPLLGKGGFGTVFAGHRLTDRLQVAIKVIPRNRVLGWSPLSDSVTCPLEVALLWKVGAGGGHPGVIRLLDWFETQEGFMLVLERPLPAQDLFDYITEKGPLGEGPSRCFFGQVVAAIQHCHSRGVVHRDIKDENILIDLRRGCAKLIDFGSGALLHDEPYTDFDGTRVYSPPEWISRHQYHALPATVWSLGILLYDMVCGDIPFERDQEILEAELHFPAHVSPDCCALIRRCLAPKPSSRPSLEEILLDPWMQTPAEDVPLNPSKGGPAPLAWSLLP
T1 sequence (Q13177 whole entry): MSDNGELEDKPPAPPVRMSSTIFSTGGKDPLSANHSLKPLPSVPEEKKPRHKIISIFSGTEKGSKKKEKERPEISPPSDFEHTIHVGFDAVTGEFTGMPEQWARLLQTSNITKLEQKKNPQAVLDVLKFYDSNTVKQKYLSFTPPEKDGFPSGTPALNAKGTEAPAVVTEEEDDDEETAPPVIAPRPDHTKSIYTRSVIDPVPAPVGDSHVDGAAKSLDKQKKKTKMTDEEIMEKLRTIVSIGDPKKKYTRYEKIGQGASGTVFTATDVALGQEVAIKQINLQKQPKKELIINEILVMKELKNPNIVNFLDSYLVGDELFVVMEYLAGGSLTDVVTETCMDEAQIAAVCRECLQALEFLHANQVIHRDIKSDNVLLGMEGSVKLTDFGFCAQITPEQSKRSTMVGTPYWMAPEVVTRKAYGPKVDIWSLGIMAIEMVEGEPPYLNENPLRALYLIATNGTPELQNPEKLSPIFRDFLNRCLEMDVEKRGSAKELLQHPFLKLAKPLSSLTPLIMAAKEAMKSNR
T5 sequence (P12931 whole entry): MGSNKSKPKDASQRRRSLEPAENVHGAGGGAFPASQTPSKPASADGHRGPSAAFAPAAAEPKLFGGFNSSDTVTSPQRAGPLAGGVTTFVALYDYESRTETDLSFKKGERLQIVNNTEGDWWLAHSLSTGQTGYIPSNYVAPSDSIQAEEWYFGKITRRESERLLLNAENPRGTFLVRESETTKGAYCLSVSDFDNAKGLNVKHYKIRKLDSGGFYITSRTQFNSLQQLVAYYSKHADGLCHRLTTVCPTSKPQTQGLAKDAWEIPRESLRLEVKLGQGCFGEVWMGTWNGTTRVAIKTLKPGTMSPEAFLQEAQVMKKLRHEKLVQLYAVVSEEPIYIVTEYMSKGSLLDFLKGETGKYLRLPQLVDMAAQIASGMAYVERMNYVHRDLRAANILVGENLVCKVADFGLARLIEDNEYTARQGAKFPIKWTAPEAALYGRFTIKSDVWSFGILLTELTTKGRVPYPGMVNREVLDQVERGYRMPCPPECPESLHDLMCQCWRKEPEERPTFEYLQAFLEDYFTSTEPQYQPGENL
T2 sequence (Q00536 whole entry): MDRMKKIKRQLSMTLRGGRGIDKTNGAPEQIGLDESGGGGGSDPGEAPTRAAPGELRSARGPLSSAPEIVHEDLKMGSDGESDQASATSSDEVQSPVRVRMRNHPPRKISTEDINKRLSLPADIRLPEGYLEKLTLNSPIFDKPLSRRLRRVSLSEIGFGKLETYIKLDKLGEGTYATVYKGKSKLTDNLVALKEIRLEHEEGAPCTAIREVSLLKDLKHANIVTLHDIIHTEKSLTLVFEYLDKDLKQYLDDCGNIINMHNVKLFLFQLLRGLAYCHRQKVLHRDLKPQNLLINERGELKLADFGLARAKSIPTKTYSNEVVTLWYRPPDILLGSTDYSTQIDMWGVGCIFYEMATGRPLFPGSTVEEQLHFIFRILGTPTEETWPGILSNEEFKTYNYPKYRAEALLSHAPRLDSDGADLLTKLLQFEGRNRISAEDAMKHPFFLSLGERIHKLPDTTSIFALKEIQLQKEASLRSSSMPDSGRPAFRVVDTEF

SMILES	EC50 (Cryptosporidium parvum) [nM]	inhibition at 10 µM (Cryptosporidium parvum) [%]	inhibition at 10 µM (PAK2) [%]	inhibition at 10 µM (PCTK1) [%]	inhibition at 10 µM (PIM2) [%]	inhibition at 10 µM (RPS6KA5(Kin.Dom.1)) [%]	inhibition at 10 µM (SRC) [%]	inhibition at 10 µM (TNIK) [%]	inhibition at 10 µM (TNK1) [%]	inhibition at 10 µM (TXK) [%]	inhibition at 10 µM (YANK3) [%]
CN1CCN(c2ccc(Nc3nccc(-c4cnn5ncccc45)n3)cc2C#N)CC1 [Compound 1]	40	95.6	95.4	100	99.7	65.7	99.2	98.9	87.1	0	0
COc1ccc(Nc2nccc(-c3cnn4ncccc34)n2)cc1 [Compound 2]	130	92.9	0	100	81.1	0	85	93.4	90.2	0	0
Cc1ccc(O)cc1Nc1ccnc(Nc2cccc(C(N)=O)c2)n1 [Compound 3]	610	94.4	93.4	0	0	0	100	99.3	80.1	100	0
Cc1ccc(O)cc1N(C)c1ccnc(Nc2cccc(S(N)(=O)=O)c2)n1 [Compound 4]	80	95.5	100	96.9	0	0	100	99.6	87.7	100	78.6
Fc1cccc(COc2ccc(Nc3ncnc4c3CN(CCN3CCOCC3)CC4)cc2Cl)c1 [Compound 6]	240	93.7	97.6	0	0	0	0	0	0	0	0
COc1cc(Nc2nccc(-c3sc(N)nc3-c3cccc(NC(=O)c4c(F)cccc4F)c3)n2)cc(OC)c1OC [Compound 7]	180	90.9	90	0	0	97.4	100	99.9	100	90.4	94.8
C[C@@H](Oc1cc(-c2cnc3ccccn23)sc1C(N)=O)c1ccccc1Cl [Compound 8]	390	95	0	0	0	0	0	0	0	0	0
c1ccc(COc2cccc(-c3ccnc4[nH]ccc34)c2)cc1 [Compound 9]	310	95.2	0	0	0	0	0	0	0	0	0
Clc1ccc(Nc2ncc(-c3ccccc3)s2)cc1 [Compound 10]	420	95.1	0	0	0	0	0	0	0	0	0
Nc1ncc2c(-c3ccncc3)c[nH]c2n1 [Compound 11]	60	90.8	0	78.2	0	0	93.3	93.7	0	0	0
